{
  "source": "ChEMBL document CHEMBL2150997",
  "about": "“Profiling of a prescription drug library for potential renal drug-drug interactions mediated by the organic cation transporter 2” (J Med Chem, 2011)",
  "key": {"[1]": {"target": "T1, Solute carrier family 22 member 1 (Homo sapiens, UniProt O15245)", "T1 sequence (O15245 whole entry)": "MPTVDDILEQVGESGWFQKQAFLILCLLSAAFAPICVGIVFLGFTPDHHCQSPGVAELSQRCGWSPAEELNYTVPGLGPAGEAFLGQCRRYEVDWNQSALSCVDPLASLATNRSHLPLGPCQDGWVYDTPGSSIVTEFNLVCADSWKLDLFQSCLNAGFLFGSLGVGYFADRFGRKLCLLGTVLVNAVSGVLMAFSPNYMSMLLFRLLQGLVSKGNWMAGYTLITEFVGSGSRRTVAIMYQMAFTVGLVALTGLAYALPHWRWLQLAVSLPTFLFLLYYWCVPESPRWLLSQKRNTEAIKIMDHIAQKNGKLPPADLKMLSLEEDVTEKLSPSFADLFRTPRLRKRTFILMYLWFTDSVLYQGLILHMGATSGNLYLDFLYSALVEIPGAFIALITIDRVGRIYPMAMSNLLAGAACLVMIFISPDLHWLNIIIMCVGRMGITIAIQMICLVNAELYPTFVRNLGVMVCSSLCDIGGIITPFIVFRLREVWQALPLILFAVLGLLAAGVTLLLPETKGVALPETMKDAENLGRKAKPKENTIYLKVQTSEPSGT", "assay_type": "ADME, cell-based", "description": "Inhibition of human OCT1 expressed in HEK-293-Flp-In cells incubated for 3 mins by ASP+ substrate uptake assay"}, "[2]": {"assay": "Protein binding in human plasma", "assay_type": "ADME, cell-free", "settings": "read-out: PPB (converted)"}, "[3]": {"target": "T2, Multidrug and toxin extrusion protein 2 (Homo sapiens, UniProt Q86VL8)", "T2 sequence (Q86VL8 whole entry)": "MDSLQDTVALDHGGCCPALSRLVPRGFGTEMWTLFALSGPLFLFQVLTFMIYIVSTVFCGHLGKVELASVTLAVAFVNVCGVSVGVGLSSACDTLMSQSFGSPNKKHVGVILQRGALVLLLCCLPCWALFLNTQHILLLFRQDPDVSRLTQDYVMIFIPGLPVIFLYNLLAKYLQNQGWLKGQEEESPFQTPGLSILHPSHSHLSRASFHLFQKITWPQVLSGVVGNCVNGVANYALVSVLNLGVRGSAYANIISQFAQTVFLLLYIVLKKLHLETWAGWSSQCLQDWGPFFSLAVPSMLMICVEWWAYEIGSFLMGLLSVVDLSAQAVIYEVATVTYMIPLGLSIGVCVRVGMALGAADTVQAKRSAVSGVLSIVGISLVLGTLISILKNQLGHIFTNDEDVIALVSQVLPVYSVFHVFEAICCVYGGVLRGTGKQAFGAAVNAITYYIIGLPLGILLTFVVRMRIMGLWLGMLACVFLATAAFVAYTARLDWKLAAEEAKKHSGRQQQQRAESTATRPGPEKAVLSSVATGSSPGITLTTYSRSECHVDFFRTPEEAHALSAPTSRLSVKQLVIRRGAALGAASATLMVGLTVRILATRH", "description": "Inhibition of human MATE2-K expressed in HEK-293-Flp-In cells incubated for 3 mins by ASP+ substrate uptake assay"}, "[4]": {"assay": "Cmax in human", "assay_type": "ADME, organism-based", "settings": "in vivo"}, "[5]": {"target": "T3, Solute carrier family 22 member 2 (Homo sapiens, UniProt O15244)", "T3 sequence (O15244 whole entry)": "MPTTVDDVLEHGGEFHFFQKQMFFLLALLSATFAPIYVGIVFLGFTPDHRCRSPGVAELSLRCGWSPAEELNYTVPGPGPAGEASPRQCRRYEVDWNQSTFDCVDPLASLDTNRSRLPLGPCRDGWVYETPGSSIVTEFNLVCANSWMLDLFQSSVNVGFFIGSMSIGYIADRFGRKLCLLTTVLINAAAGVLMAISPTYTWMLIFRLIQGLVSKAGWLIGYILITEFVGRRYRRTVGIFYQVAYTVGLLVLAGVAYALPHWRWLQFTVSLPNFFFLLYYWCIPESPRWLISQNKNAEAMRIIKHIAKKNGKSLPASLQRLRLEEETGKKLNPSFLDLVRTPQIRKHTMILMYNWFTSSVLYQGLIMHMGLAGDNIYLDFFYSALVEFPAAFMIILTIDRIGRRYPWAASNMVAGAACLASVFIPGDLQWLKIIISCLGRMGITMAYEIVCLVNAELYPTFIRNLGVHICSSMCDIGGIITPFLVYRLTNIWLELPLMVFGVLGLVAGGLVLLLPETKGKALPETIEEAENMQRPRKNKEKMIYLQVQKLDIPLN", "assay_type": "ADME, cell-based", "description": "Inhibition of human OCT2 expressed in HEK-293-Flp-In cells incubated for 3 mins by ASP+ substrate uptake assay"}, "cells": {"assay": "cells", "settings": "Homo sapiens, 0.05 h", "description": "Inhibition of human OCT2 A270S mutant expressed in HEK-293-Flp-In cells incubated for 3 mins by ASP+ substrate uptake assay"}, "[6]": {"target": "T4, Multidrug and toxin extrusion protein 1 (Homo sapiens, UniProt Q96FL8)", "T4 sequence (Q96FL8 whole entry)": "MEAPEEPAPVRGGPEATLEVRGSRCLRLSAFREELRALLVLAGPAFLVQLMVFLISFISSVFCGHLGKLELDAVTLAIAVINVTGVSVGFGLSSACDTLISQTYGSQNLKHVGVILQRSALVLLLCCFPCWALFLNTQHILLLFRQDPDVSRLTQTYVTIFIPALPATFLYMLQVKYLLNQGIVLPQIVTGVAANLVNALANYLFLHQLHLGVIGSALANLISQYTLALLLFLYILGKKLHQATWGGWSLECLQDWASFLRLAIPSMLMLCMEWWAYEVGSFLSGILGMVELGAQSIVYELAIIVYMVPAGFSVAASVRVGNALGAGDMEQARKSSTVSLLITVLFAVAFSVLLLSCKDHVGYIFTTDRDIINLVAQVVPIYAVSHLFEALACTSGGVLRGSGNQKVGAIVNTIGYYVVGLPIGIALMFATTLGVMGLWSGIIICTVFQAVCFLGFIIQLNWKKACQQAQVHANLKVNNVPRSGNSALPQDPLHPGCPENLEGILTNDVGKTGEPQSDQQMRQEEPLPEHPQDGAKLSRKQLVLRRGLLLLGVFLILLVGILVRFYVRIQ", "description": "Inhibition of human MATE1 expressed in HEK-293-Flp-In cells incubated for 3 mins by ASP+ substrate uptake assay"}},
  "data": [
    {"molecule": "Nc1c2c(nc3ccccc13)CCCC2", "note": "[TACRINE]", "values": [
      {"measurement": "IC50", "setting": "[1]", "result": 83, "unit": "µM"},
      {"measurement": "fraction unbound", "setting": "[2]", "result": 0.45},
      {"measurement": "IC50", "setting": "[3]", "result": "> 100", "unit": "µM"}
    ]},
    {"molecule": "CN/C(=N\\CCSCc1nc[nH]c1C)NC#N", "note": "[CIMETIDINE]", "values": [
      {"measurement": "Cmax", "setting": "[4]", "result": 11.9, "unit": "µM"},
      {"measurement": "IC50", "setting": "[5]", "result": 23, "unit": "µM"},
      {"measurement": "IC50", "setting": "[1]", "result": "> 100", "unit": "µM"},
      {"measurement": "fraction unbound", "setting": "[2]", "result": 0.81},
      {"measurement": "IC50", "setting": "[3]", "result": 39, "unit": "µM"},
      {"measurement": "IC50", "setting": "cells", "result": 20, "unit": "µM"}
    ]},
    {"molecule": "Cc1nccn1CC1CCc2c(c3ccccc3n2C)C1=O", "note": "(centres undefined) [ONDANSETRON]", "values": [
      {"measurement": "Cmax", "setting": "[4]", "result": 0.13, "unit": "µM"},
      {"measurement": "IC50", "setting": "[1]", "result": "> 100", "unit": "µM"}
    ]},
    {"molecule": "CN(C)CCCN1c2ccccc2CCc2ccccc21", "note": "[IMIPRAMINE]", "values": [
      {"measurement": "IC50", "setting": "[1]", "result": 37, "unit": "µM"},
      {"measurement": "fraction unbound", "setting": "[2]", "result": 0.1},
      {"measurement": "IC50", "setting": "[6]", "result": 10, "unit": "µM"},
      {"measurement": "IC50", "setting": "[3]", "result": "> 100", "unit": "µM"}
    ]},
    {"molecule": "OCCN(CCO)c1nc(N2CCCCC2)c2nc(N(CCO)CCO)nc(N3CCCCC3)c2n1", "note": "[DIPYRIDAMOLE]", "values": [
      {"measurement": "IC50", "setting": "[1]", "result": 81, "unit": "µM"}
    ]},
    {"molecule": "CC(C)N(CCC(C(N)=O)(c1ccccc1)c1ccccn1)C(C)C", "note": "(centres undefined) [DISOPYRAMIDE]", "values": [
      {"measurement": "fraction unbound", "setting": "[2]", "result": 0.5},
      {"measurement": "IC50", "setting": "[6]", "result": 66, "unit": "µM"},
      {"measurement": "IC50", "setting": "[3]", "result": "> 100", "unit": "µM"}
    ]}
  ]
}
